The results in this text go back to patent US10689354B2, “Aminoazole derivative” (Teijin Pharma Limited, priority 2015, dated 2020).

SMILES strings stand for the structures. Some results are limits rather than exact numbers.

The target in assay [1] is T1, androgen receptor (AR-LBD) (Rattus norvegicus, UniProt P15207).
T1 construct: 5 μL of 2×AR-LBD/Fluoromone AL Red Complex contained in the kit; purchased Invitrogen
T1 sequence (P15207 651-882 limits assumed): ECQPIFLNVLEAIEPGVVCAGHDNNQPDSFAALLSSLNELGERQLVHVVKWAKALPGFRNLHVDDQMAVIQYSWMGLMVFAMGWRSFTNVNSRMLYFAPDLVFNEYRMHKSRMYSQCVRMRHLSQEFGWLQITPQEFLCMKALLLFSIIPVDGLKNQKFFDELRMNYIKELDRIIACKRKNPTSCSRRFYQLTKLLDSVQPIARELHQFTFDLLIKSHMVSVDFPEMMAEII
Put plainly: Evaluation of androgen receptor affinity (PolarScreen Androgen Receptor Competitor Assay Kit, Red; fluorescence polarization). Conditions: 22° C. for 5 hours, relative to binding rate of 1 μM DHT, read-out: AR affinity (pEC50) (converted). Summed up:
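Test compound and the 2× AR-LBD/Fluoromone AL Red complex were combined in duplicate wells. After reacting 5 h at 22° C, polarization was measured. pEC50 was derived by 4-parameter fitting, normalizing to binding obtained with 1 μM dihydrotestosterone.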
(Polarisation of emitted light reports the rotation of a fluorescent probe.)

In the next assay the target is T2, human androgen receptor (Homo sapiens, UniProt P10275).
T2 construct: expressed in transfected cells; host or cells: HEK293
T2 sequence (P10275 1-920): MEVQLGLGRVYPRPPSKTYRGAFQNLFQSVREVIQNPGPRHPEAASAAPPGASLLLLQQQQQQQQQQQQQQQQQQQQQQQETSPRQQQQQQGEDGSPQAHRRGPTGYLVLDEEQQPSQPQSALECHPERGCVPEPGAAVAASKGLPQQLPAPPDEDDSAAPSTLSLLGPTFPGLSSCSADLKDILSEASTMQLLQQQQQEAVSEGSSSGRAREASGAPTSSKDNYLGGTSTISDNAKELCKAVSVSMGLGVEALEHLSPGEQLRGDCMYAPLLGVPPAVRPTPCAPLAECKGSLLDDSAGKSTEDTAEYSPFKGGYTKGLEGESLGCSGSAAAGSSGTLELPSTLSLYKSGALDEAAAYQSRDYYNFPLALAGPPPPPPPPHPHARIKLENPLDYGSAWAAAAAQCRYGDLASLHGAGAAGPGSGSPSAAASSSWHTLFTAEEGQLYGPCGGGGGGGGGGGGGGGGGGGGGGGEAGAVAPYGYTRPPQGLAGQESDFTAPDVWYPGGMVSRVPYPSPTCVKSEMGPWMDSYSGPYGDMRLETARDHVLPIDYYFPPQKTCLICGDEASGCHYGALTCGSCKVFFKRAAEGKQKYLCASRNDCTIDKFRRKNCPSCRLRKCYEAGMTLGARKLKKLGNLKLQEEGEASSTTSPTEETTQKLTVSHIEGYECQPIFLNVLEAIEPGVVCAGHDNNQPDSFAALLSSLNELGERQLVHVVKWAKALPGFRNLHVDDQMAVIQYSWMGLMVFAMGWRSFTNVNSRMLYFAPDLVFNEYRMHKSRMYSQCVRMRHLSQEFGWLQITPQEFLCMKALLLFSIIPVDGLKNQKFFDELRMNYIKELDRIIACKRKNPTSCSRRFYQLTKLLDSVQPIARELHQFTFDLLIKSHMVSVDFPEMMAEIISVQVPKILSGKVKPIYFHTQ
Put plainly: Reporter assay of an androgen receptor responsive sequence (luciferase, transiently transfected HEK293 cells). Type of assay: cell-based. Conditions: 24 hours incubation, relative to activity of 100 nM DHT, read-out: AR transcriptive activity (pEC50) (converted). Summed up: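 Agonism scored as pEC50, fitted by 4-parameter curve against the response to 100 nM DHT, from dual-luciferase readout after 24 h compound treatment. Cells were HEK293 co-transfected (3 h) with human AR expression vector, androgen-responsive firefly reporter and Renilla control, in charcoal-stripped serum.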
A general note: In a reporter assay the amount or activity of a reporter protein is the signal.

For the molecule `COCCCS(=O)(=O)NC(=O)c1nc(N(Cc2ccc(Cl)c(Cl)c2)c2ccc(C#N)cc2)sc1C` [Example 190, 2-[4-cyano-N-[(3,4-dichlorophenyl)methyl]anilino]-N-(3-methoxypropylsulfonyl)-5-methyl-thiazole-4-carboxamide], the results for the EC50 (in assay [1]; on human androgen receptor) were 15.8 nM and 63.1 nM, respectively.

As to `Cc1sc(N(CC2CC3CCC2C3)c2ccc(C#N)cc2)nc1C(=O)NS(C)(=O)=O` (centres unmarked) [Compound 447, 2-[4-cyano-N-(norbornan-2-ylmethyl)anilino]-5-methyl-N-methylsulfonyl-thiazole-4-carboxamide], the EC50 is 50.1 nM in assay [1] and 2510 nM on human androgen receptor.

With `Cc1sc(N(CCC2CC3CCC2C3)c2ccc(C#N)cc2)nc1C(=O)NS(C)(=O)=O` (centres unmarked) [Compound 482, 2-[4-cyano-N-(2-norbornan-2-ylethyl)anilino]-5-methyl-N-methylsulfonyl-thiazole-4-carboxamide], the EC50 in assay [1] is 50.1 nM; on human androgen receptor it was 158 nM.

For `Cc1sc(N(Cc2ccc(Br)cc2)c2ccc(C#N)cc2)nc1C(=O)NS(C)(=O)=O` [Compound 129, 2-[N-[(4-bromophenyl)methyl]-4-cyano-anilino]-5-methyl-N-methylsulfonyl-thiazole-4-carboxamide], the EC50 in assay [1] is 39.8 nM; on human androgen receptor, 20 nM.

In the case of `Cc1sc(N(Cc2cccc(C#N)c2)c2ccc(C#N)cc2)nc1C(=O)NS(C)(=O)=O` [Compound 9, 2-[4-cyano-N-[(3-cyanophenyl)methyl]anilino]-5-methyl-N-methylsulfonyl-thiazole-4-carboxamide], the figures for the EC50 (in assay [1]; on human androgen receptor) were 100 nM and 398 nM, respectively.

Take `CCc1oc(N(Cc2ccc(Br)cc2)c2ccc(C#N)cc2)nc1C(=O)NS(C)(=O)=O` [Compound 653, 2-[N-[(4-bromophenyl)methyl]-4-cyano-anilino]-5-ethyl-N-methylsulfonyl-oxazole-4-carboxamide]: the EC50 in assay [1] was 50.1 nM; on human androgen receptor, 158 nM.

With `Cc1sc(N(Cc2ccc3c(c2)OCO3)c2ccc(C#N)cc2)nc1C(=O)NS(C)(=O)=O` [Compound 128, 2-[N-(1,3-benzodioxol-5-ylmethyl)-4-cyano-anilino]-5-methyl-N-methylsulfonyl-thiazole-4-carboxamide], the EC50 in assay [1] is 39.8 nM; at human androgen receptor it was 100 nM.

As for `Cc1sc(N(Cc2ccc(F)c(C(F)(F)F)c2)c2ccc(C#N)cc2)nc1C(=O)NS(C)(=O)=O` [Example 173, 2-[4-cyano-N-[[4-fluoro-3-(trifluoromethyl)phenyl]methyl]anilino]-5-methyl-N-methylsulfonyl-thiazole-4-carboxamide], the EC50 in assay [1] was 25.1 nM; at human androgen receptor, 79.4 nM.

As to `COc1c(F)c(CN(c2ccc(C#N)cc2)c2nc(C(=O)NS(C)(=O)=O)c(C)s2)c(F)c(F)c1C(F)(F)F` [Compound 418, 2-[4-cyano-N-[[2,3,6-trifluoro-5-methoxy-4-(trifluoromethyl)phenyl]methyl]anilino]-5-methyl-N-methylsulfonyl-thiazole-4-carboxamide], the EC50 was 50.1 nM in assay [1] and 158 nM on human androgen receptor.

On to `Cc1sc(N(CCC2CCCCC2)Cc2ccc(OC(F)(F)F)cc2)nc1C(=O)NS(=O)(=O)C(F)(F)F` [Compound 724, 2-[2-cyclohexylethyl-[[4-(trifluoromethoxy)phenyl]methyl]amino]-5-methyl-N-(trifluoromethylsulfonyl)thiazole-4-carboxamide], for which the EC50 in assay [1] was 501 nM; at human androgen receptor, above 10000 nM.

Consider `CCS(=O)(=O)NC(=O)c1nc(N(CCc2ccc(Cl)cc2)Cc2ccc(Cl)cc2)sc1C` [Compound 693, 2-[2-(4-chlorophenyl)ethyl-[(4-chlorophenyl)methyl]amino]-N-ethylsulfonyl-5-methyl-thiazole-4-carboxamide], for which the EC50 is 31.6 nM in assay [1] and 200 nM at human androgen receptor.

Consider `Cc1sc(N(Cc2ccccc2)c2ccc(C#N)cc2)nc1C(=O)NS(=O)(=O)Cc1ccccn1` [Compound 396, 2-(N-benzyl-4-cyano-anilino)-5-methyl-N-(2-pyridylmethylsulfonyl)thiazole-4-carboxamide], for which the values for the EC50 (in assay [1]; on human androgen receptor) were 316 nM and 6310 nM, respectively.

Consider `Cc1sc(N(Cc2csc3cccc(C)c23)c2ccc(C#N)cc2)nc1C(=O)NS(C)(=O)=O` [Compound 464, 2-[4-cyano-N-[(4-methylbenzothiophen-3-yl)methyl]anilino]-5-methyl-N-methylsulfonyl-thiazole-4-carboxamide], for which the figures for the EC50 (in assay [1]; at human androgen receptor) were 63.1 nM and 5010 nM, respectively.

Regarding `Cc1sc(N(Cc2cnc(C3CC3)s2)c2ccc(C#N)cc2)nc1C(=O)NS(C)(=O)=O` [Compound 466, 2-[4-cyano-N-[(2-cyclopropylthiazol-5-yl)methyl]anilino]-5-methyl-N-methylsulfonyl-thiazole-4-carboxamide], the EC50 was 100 nM in assay [1] and 398 nM at human androgen receptor.

As for `CS(=O)(=O)NC(=O)c1nc(N(Cc2ccc(C(F)(F)F)cc2)c2ccc(C#N)cc2)sc1Br` [Example 251, 5-bromo-2-[4-cyano-N-[[4-(trifluoromethyl)phenyl]methyl]anilino]-N-methylsulfonyl-thiazole-4-carboxamide], the values for the EC50 (in assay [1]; at human androgen receptor) were 39.8 nM and 25.1 nM, respectively.

With `Cc1sc(N(Cc2cnc(C(F)(F)F)cn2)c2ccc(C#N)cc2)nc1C(=O)NS(C)(=O)=O` [Compound 537, 2-[4-cyano-N-[[5-(trifluoromethyl)pyrazin-2-yl]methyl]anilino]-5-methyl-N-methylsulfonyl-thiazole-4-carboxamide], the EC50 was 316 nM in assay [1] and 631 nM at human androgen receptor.

For the molecule `Cc1sc(N(Cc2ccc(OCc3ccccc3)cc2)c2ccc(C#N)cc2)nc1C(=O)NS(C)(=O)=O` [Compound 393, 2-[N-[(4-benzyloxyphenyl)methyl]-4-cyano-anilino]-5-methyl-N-methylsulfonyl-thiazole-4-carboxamide], the EC50 in assay [1] is 31.6 nM; at human androgen receptor it was 398 nM.

Turning to `CS(=O)(=O)NC(=O)c1nc(N(Cc2cccc(F)c2)c2ccc(C#N)cc2)sc1Br` [Example 243, 5-bromo-2-[4-cyano-N-[(3-fluorophenyl)methyl]anilino]-N-methylsulfonyl-thiazole-4-carboxamide], the EC50 in assay [1] is 50.1 nM; on human androgen receptor, 63.1 nM.

For the molecule `Cc1sc(N(CCc2cccs2)c2ccc(C#N)cc2)nc1C(=O)NS(C)(=O)=O` [Compound 131, 2-[4-cyano-N-[2-(2-thienyl)ethyl]anilino]-5-methyl-N-methylsulfonyl-thiazole-4-carboxamide], the EC50 is 251 nM in assay [1] and 1000 nM on human androgen receptor.

Turning to `[2H]c1c([2H])c([2H])c(C([2H])([2H])N(c2ccc(C#N)cc2)c2nc(C(=O)NS(C)(=O)=O)c(C)s2)c([2H])c1[2H]` [Compound 388, 2-(4-cyano-N-[dideuterio-(2,3,4,5,6-pentadeuteriophenyl)methyl]anilino)-5-methyl-N-methylsulfonyl-thiazole-4-carboxamide], the EC50 in assay [1] is 50.1 nM; at human androgen receptor it was 63.1 nM.

Take `Cc1sc(N(Cc2ccc(OC(F)(F)F)cc2)c2ccc(C#N)cc2)nc1C(=O)NS(=O)(=O)CCCCO` [Example 201, 2-[4-cyano-N-[[4-(trifluoromethoxy)phenyl]methyl]anilino]-N-(4-hydroxybutylsulfonyl)-5-methyl-thiazole-4-carboxamide]: the EC50 (in assay [1]; at human androgen receptor) was 39.8 nM throughout.

For `Cc1sc(N(Cc2cc(F)cc(OC(F)F)c2)c2ccc(C#N)cc2)nc1C(=O)NS(C)(=O)=O` [Compound 518, 2-[4-cyano-N-[[3-(difluoromethoxy)-5-fluoro-phenyl]methyl]anilino]-5-methyl-N-methylsulfonyl-thiazole-4-carboxamide], the values for the EC50 (in assay [1]; at human androgen receptor) were 25.1 nM and 39.8 nM, respectively.
